From PubChem BioAssay (NCI)
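Dose response: 5 concentrations. Exposure: 48 h. Format: 96-well plates. Endpoint: linear interpolation; highest concentration if not reached. GI50 is the concentration that inhibits growth by half. Definition used: TGI = concentration required for complete inhibition of growth.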

Legend:
Assay in all cases: NCI tumour cell line growth inhibition, 48 h
BT-549 breast = test system: BT-549 breast
HT29 colon = test system: HT29 colon
OVCAR-8 ovarian = test system: OVCAR-8 ovarian
NCI-H23 lung = test system: NCI-H23 lung
SW-620 colon = test system: SW-620 colon
KM12 colon = test system: KM12 colon
SR leukemia = test system: SR leukemia
MALME-3M melanoma = test system: MALME-3M melanoma
RPMI-8226 leukemia = test system: RPMI-8226 leukemia
K-562 leukemia = test system: K-562 leukemia

Compound | GI50 (BT-549 breast) [µM] | TGI (BT-549 breast) [µM] | GI50 (HT29 colon) [µM] | TGI (HT29 colon) [µM] | GI50 (OVCAR-8 ovarian) [µM] | TGI (OVCAR-8 ovarian) [µM] | GI50 (NCI-H23 lung) [µM] | TGI (NCI-H23 lung) [µM] | GI50 (SW-620 colon) [µM] | TGI (SW-620 colon) [µM] | GI50 (KM12 colon) [µM] | TGI (KM12 colon) [µM] | GI50 (SR leukemia) [µM] | TGI (SR leukemia) [µM] | GI50 (MALME-3M melanoma) [µM] | TGI (MALME-3M melanoma) [µM] | GI50 (RPMI-8226 leukemia) [µM] | TGI (RPMI-8226 leukemia) [µM] | GI50 (K-562 leukemia) [µM] | TGI (K-562 leukemia) [µM]
Cc1cc(N(CCCl)CCCl)ccc1C=Nc1cccnc1 | 12.8 | 53.9 | > 79 | > 100 | 28.3 | > 100 | 6.93 | > 100 | 61.2 | > 100 | 42.6 | > 100 | 0.695 | > 100 | 22.4 | > 100 | 21.1 | > 100 | 34.7 | > 100
CCOc1ccc(NC(=O)Nc2cc(C(C)C)ccc2C)cc1 | 1.58 | 6.24 | 32.8 | > 100 | 3.67 | 14.8 | 16.4 | 98.1 | 11.2 | > 100 | 11.6 | > 100 | 0.952 | > 22.9 | 3.74 | 18.2 | 10.9 | > 65.8 | 21.4 | > 100
